Laboratory results taken from article PMC6274376, “Naturally Inspired Molecules as Multifunctional Agents for Alzheimer’s Disease Treatment” (Molecules, 2016).
Several values for one entry are separate records, joined by “and”; a condition that tells them apart may be missing. Equal values may be shown once.

How the values were obtained:
[1] = Cu(II) chelating assay (bathocuproinedisulfonic acid disodium salt, BCS); type: physicochemical
Procedure: Data were expressed as chelating activity percentage (Table 2).
The Cu(II) chelating activity of the compounds was determined using the bathocuproinedisulfonic acid disodium salt (BCS) assay as previously described. Briefly, 50 μL of a 0.25 mM CuSO4 solution were mixed for 2 min with 50 μL of 5–20 µM compound solution in 100 µL of HEPES buffer (15 mM). Hydroxylamine (1 mM) was added after 2 min in order to reduce non-chelated cupric ions into cuprous ones. Finally, 50 μL of BCS (5 mM) or water (blank) was added and the absorbance at 490 nm was measured by spectrophotometry using a multilabel plate reader (VICTOR™ X3, PerkinElmer, Waltham, MA, USA) immediately and at 5 min. Na2EDTA (5–20 µM) was used as a positive control. The ability of the test compounds to chelate cupric ions was calculated using the following equation: chelating activity (%) = [1 − (Abs BCS + compound/Abs BCS) × 100].

[2] = UV-vis spectrophotometric evaluation of Cu(II) ion complexation; type: physicochemical
From the text: Chalcone conjugates 4 and 5 were investigated to evaluate their ability to complex Cu(II) ions via a UV-vis spectrophotometric study.
Therefore, we decided to carry on the spectrophotometric measurements in a mixed solvent: aqueous MOPS aqueous buffer […] pH 7.4 /DMF in 1:4 ratio, respectively. Flavonoids bearing the 4-carbonyl-5-hydroxyl chelation site have characteristic UV-vis spectra, characterized by a wide and non-structured band centred around 370–380 nm, with a molar extinction coefficient of 50,000 cm^−1·M^−1 that is attributed to HOMO-LUMO transition with a π-π* character.
All reagents and solvents were used as received (from Aldrich, St. Louis, MO, USA) without further purification: copper(II) sulphate hydrate (≥98%), 3-(N-Morpholino)propanesulfonic acid (MOPS, ≥99.5%), sodium hydroxide (≥98%), N,N-dimethylformamide (spectroscopic grade, DMF). A Milli-Q system (Millipore, Billerica, MA, USA) was used for the purification of water (resistivity ≥18.2 MΩ). MOPS bufferstock solution were obtained by a dissolution in Milli-Q water of 3-(N-morpholino)propane sulphonic acid to a final concentration of 10^−3 M. The pH was corrected with a solution of sodium hydroxide 1 N to a value of pH 7.4. Absorption spectra were recorded on a Perkin-Elmer Lambda 45 spectrophotometer at room temperature. Spectrophotometric titrations were performed as follows: stock solutions of ligands (ca. 10^−3 M) were prepared in DMF, diluted down to the desired concentration, in the quartz cuvette, in MOPS buffer 10^−3 M pH 7.4/DMF (1:4) to a final volume of 2.5 mL and then titrated by adding increasing amounts of Cu(II) (3.04 × 10^−3 Min DMF).

For CN(Cc1ccccc1)Cc1ccc(C(=O)c2ccc(OCCOc3ccc(C(=O)/C=C/c4cccc5ccccc45)c(O)c3)cc2)cc1 [Compound 5, E-1-{4-[2-(4-4-Benzylmethylaminomethylbenzoylphenoxy)ethoxy]-2-hydroxyphenyl}-3-(naphthalen-1-yl)-prop-2-en-1-one], the “Cu(II)-Chelating Activity” value ([1]; 5 µM compound, fixed 40 µM CuSO4) was 9.48%, the “Cu(II)-Chelating Activity” value ([1]; 10 µM compound, fixed 40 µM CuSO4) was 13.78% and the “Cu(II)-Chelating Activity” value ([1]; 20 µM compound, fixed 40 µM CuSO4, mean ± SD) was 19.73% and 19.73 ± 0.30%. The “ability to complex Cu(II) ions” value ([2]; UV-vis spectra, MOPS buffer pH 7.4/DMF 1:4) was “able to chelate the selected ion” and the “association constant (order of magnitude)” value ([2]; estimated from titration data, 1:1 complex stoichiometry with Cu(II), MOPS pH 7.4/DMF 1:4) was ~10^4.
